# Reference: US20060120975A1, “Oral care composition comprising a phenolic compound and antioxidant vitamins and vitamin derivatives” (Colgate-Palmolive Company, priority 2004, published 2006)
# Test system: IL-1β stimulated PGE2 production
# Experiment: IL-1β stimulated PGE2 production cell culture assay, an inflammation model
# Type: cell-based
# Details: vitamin or vitamin derivative added to triclosan
# Description: The present invention is in part derived from a finding that, upon addition of an antioxidant vitamin or vitamin derivative to an antibacterial phenolic compound having anti-inflammatory activity, in particular a halogenated diphenylether compound having such activity, the anti-inflammatory activity can be enhanced.
compound,measurement,value
"CCCCCCCCCCCCCCCC(=O)OC[C@H](O)[C@H]1OC(=O)C(O)=C1O [Ascorbyl palmitate, ascorbyl palmitate]",enhancing the anti-inflammatory activity of triclosan,less dramatic enhancement
Cc1c(C)c2c(c(C)c1O)CCC(C)(C(=O)O)O2 (centres unmarked) [TROLOX®],enhancing the anti-inflammatory activity of triclosan,especially effective
O=C1O[C@H]([C@@H](O)CO)C(O)=C1O [ascorbic acid],enhancing the anti-inflammatory activity of triclosan,especially effective
CC(=O)Oc1c(C)c(C)c2c(c1C)CCC(C)(CCC[C@H](C)CCC[C@H](C)CCCC(C)C)O2 (some centres unmarked) [vitamin E acetate],enhancing the anti-inflammatory activity of triclosan,especially effective
vitamin E,enhancing the anti-inflammatory activity of triclosan,less dramatic enhancement
